Measurements as given in PubChem BioAssay (NCI).
Several values for one entry are separate records, joined by “and”; a condition that tells them apart may be missing. Equal entries are not always repeated.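 A five-concentration, 48-hour dose response in 96-well plates underlies each endpoint, interpolated linearly between surrounding concentrations. GI50 marks 50% less growth. TGI is the concentration that stops growth completely.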 Where a SMILES comes first, the peptide text is derived from it. [ ]: non-standard residue; d: D form. The star is where a group is joined. Bn2Val = CC(C)[C@@H](C(=O)*)N(Cc1ccccc1)Cc1ccccc1; NH(3,4-diMeO-benzyl) = COc1ccc(CN*)cc1OC; NMeV = CN[C@H](C(=O)O)C(C)C; dNMeA = CN[C@H](C)C(=O)O

How the values were obtained:
Experiment in all cases: NCI tumour cell line growth inhibition, 48 h
[1] = test system: LOX IMVI melanoma
[2] = test system: UO-31 renal
[3] = test system: SF-268 CNS
[4] = test system: HOP-62 NSCLC
[5] = test system: MALME-3M melanoma
[6] = test system: SN12C renal
[7] = test system: OVCAR-4 ovarian
[8] = test system: COLO 205 colon
[9] = test system: K-562 leukemia
[10] = test system: RXF 393 renal

| SMILES | GI50 [1] | TGI [1] | GI50 [2] | TGI [2] | GI50 [3] | TGI [3] | GI50 [4] | TGI [4] | GI50 [5] | TGI [5] | GI50 [6] | TGI [6] | GI50 [7] | TGI [7] | GI50 [8] | TGI [8] | GI50 [9] | TGI [9] | GI50 [10] | TGI [10] |
| --- | --- | --- | --- | --- | --- | --- | --- | --- | --- | --- | --- | --- | --- | --- | --- | --- | --- | --- | --- | --- |
| O=C1c2ccccc2C(=O)c2c1ccc1[nH]c(CCl)nc21 | 2.2 µM | 5.22 µM | 2.72 µM | 9.22 µM | 2.22 µM | 8.1 µM | 3.12 µM | 9.42 µM | 2.82 µM | 10.9 µM | 2.08 µM | 4.87 µM | 3.05 µM | 11.2 µM | 2.54 µM | 8.62 µM | 2.98 µM | 17 µM | 1.86 µM | 6.17 µM |
| O=C1CC[C@H]2CNC(=O)C[C@H]2C1 |  | > 100 µM |  | > 100 µM |  | > 100 µM |  | > 100 µM |  | > 100 µM |  | > 100 µM |  | > 100 µM |  | > 100 µM |  | > 100 µM |  | > 100 µM |
| CC1=CCCC(OC(N)=O)C1 (centres undefined) |  | > 100 µM |  | > 100 µM |  | > 100 µM |  | > 100 µM |  | > 100 µM |  | > 100 µM |  | > 100 µM |  | > 100 µM |  | > 100 µM |  | > 100 µM |
| COc1ccc(CNC(=O)[C@@H](C)N(C)C(=O)[C@@H]2CCCN2C(=O)[C@H](C(C)C)N(C)C(=O)[C@@H](NC(=O)[C@H](C(C)C)N(Cc2ccccc2)Cc2ccccc2)C(C)C)cc1OC (Bn2Val-V[NMeV]P[dNMeA]-{NH(3,4-diMeO-benzyl)}) | 6.35 µM | 15.4 µM and 26.2 µM |  | > 100 µM | 17.6 µM | 14.8 µM and > 100 µM | 14.7 µM | 16.5 µM and 33.4 µM | 14.8 µM | 15.6 µM and 31.9 µM | 10 µM | 17.2 µM and 22.2 µM | 7.54 µM | 50 µM and 42.2 µM | 5.86 µM | 19.8 µM and 35.9 µM | 6.52 µM | 50 µM and > 100 µM | 3.61 µM | 12.8 µM and 15 µM |
| C1CN2N3CCCC23C1 (centres undefined) |  | > 100 µM |  | > 100 µM |  | > 100 µM |  | > 100 µM |  | > 100 µM |  | > 100 µM |  | > 100 µM |  | > 100 µM |  | > 100 µM |  | > 100 µM |
| CC(C)(C)C1=NC(S)NC(CCC(=O)Nc2ccccc2[N+](=O)[O-])=C1 (centres undefined) |  | > 100 µM |  | > 100 µM |  | > 100 µM |  | > 100 µM |  | > 100 µM |  | > 100 µM |  | > 100 µM |  | > 100 µM |  | > 100 µM |  | > 100 µM |
| c1ccc(-c2nnc(-c3nn(-c4ccccc4)c4nc5ccccc5nc34)o2)cc1 |  | > 100 µM |  | > 100 µM |  | > 100 µM |  | > 100 µM |  | > 100 µM |  | > 100 µM |  | > 100 µM |  | > 100 µM |  | > 100 µM |  | 41.4 µM |
| CC(=O)OCCc1cccnc1/C=N/O |  | > 100 µM |  | > 100 µM |  | > 100 µM |  | > 100 µM |  | > 100 µM |  | > 100 µM |  | > 100 µM |  | > 100 µM |  | > 100 µM |  | > 100 µM |
| O=C(O/N=C1/CCC/C1=C\c1ccccc1)c1ccc([N+](=O)[O-])cc1 |  | > 100 µM |  | 74.9 µM |  | > 100 µM |  | > 100 µM |  | > 100 µM |  | > 100 µM |  | > 100 µM |  | > 100 µM |  | > 100 µM |  | > 100 µM |
| CN(C)S(=O)(=O)Nc1ccccn1 |  | > 100 µM |  | > 100 µM |  | > 100 µM |  | > 100 µM |  | > 100 µM |  | > 100 µM |  | > 100 µM |  | > 100 µM |  | > 100 µM |  | > 100 µM |
